Some test systems named below: 786-0; A498; A549; ACHN; BT-549; CAKI-1; COLO 205; DU-145; HCT-116; HL-60; IGROV-1; K562; MCF7; MDA-MB-435; MOLT-4; NCI-H460; NCI-H522; OVCAR-5; SK-OV-3; U-251.
Assay in all cases: growth of human tumour cells (NCI), 48 h

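Tested at 5 concentrations; 48 h exposure; 96-well plates; endpoints linearly interpolated, else capped at highest concentration. Abbreviation: GI50, concentration required for 50% inhibition of growth.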 Activity calls are given as the source filed them. Cut-off read from the data, not from the text of the source: active = GI50 up to about 1.1 µM and inactive = higher.

As for `CCCCCCCCCCCCCCCCNc1ccn(C2CC(O)C(COC(c3ccccc3)(c3ccccc3)c3ccc(OC)cc3)O2)c(=O)n1` (stereo not given), the GI50 with 786-0, in the experiment on A498, in the experiment with A549, with ACHN, with BT-549 and in the experiment on CAKI-1 was > 100 µM (inactive) in each case. The GI50 with COLO 205 was > 100 µM (inactive); in the experiment on DU-145, > 100 µM (inactive); with HCT-116, 93.5 µM (inactive); in the experiment with HL-60, > 100 µM (inactive); in the experiment on IGROV-1 it was > 100 µM (inactive); in the experiment on K562 it was > 100 µM (inactive). Also, the GI50 in the experiment on MCF7 was > 100 µM (inactive); in the experiment with MDA-MB-435, > 100 µM (inactive); in the experiment on MOLT-4, 49.3 µM (inactive); with NCI-H460, > 100 µM (inactive); in the experiment with NCI-H522 it was > 100 µM (inactive); in the experiment on OVCAR-5, > 100 µM (inactive). Besides, the GI50 in the experiment with SK-OV-3 is > 100 µM (inactive); in the experiment with U-251, 64.1 µM (inactive).
In the case of `CN(C)c1ccc(/C=C(\NC(=O)c2ccccc2)C2NC(Cc3c[nH]c4ccccc34)C(=O)O2)cc1` (stereo not given), the GI50 was 12.2 µM (inactive) in the experiment with 786-0; > 93.1 µM (inactive) in the experiment with A498; 5.16 µM (inactive) in the experiment on A549; 8.85 µM (inactive) in the experiment with ACHN; 12.1 µM (inactive) in the experiment with BT-549; > 59 µM (inactive) in the experiment with CAKI-1. In addition, the GI50 in the experiment with COLO 205 is 4.06 µM (inactive); in the experiment with DU-145, > 100 µM (inactive); in the experiment on HCT-116 it was 19.2 µM (inactive); in the experiment on HL-60 it was 6.65 µM (inactive); in the experiment on IGROV-1 it was 5.37 µM (inactive); in the experiment on K562, 10.9 µM (inactive). For the same compound, the GI50 in the experiment with MCF7 was 6.65 µM (inactive); in the experiment with MDA-MB-435, 10.8 µM (inactive); with MOLT-4, 16.6 µM (inactive); in the experiment with NCI-H460, 3.19 µM (inactive); in the experiment on NCI-H522 it was 3.46 µM (inactive); in the experiment with OVCAR-5, > 83.6 µM (inactive). Also, the GI50 was > 59.4 µM (inactive) in the experiment on SK-OV-3 and 4.49 µM (inactive) with U-251.
Regarding `Cn1c(-c2cccs2)cc(-c2cccs2)c1-c1cccs1`, the GI50 in the experiment on 786-0 is > 100 µM (inactive); in the experiment with A498, > 100 µM (inactive); with A549, > 96.6 µM (inactive); with ACHN it was 75 µM (inactive); in the experiment on BT-549 it was > 100 µM (inactive); in the experiment with CAKI-1, > 100 µM (inactive). Also, the GI50 in the experiment with COLO 205 is 8.95 µM (inactive); in the experiment on DU-145, > 100 µM (inactive); in the experiment with HCT-116, 34.6 µM (inactive); with HL-60 it was 33 µM (inactive); in the experiment on IGROV-1 it was 51.8 µM (inactive); in the experiment with K562 it was 51.8 µM (inactive). The GI50 in the experiment with MCF7 was 2.82 µM (inactive); in the experiment with MDA-MB-435, 53.2 µM (inactive); with MOLT-4 it was 38.5 µM (inactive); in the experiment with NCI-H460 it was 78.7 µM (inactive); with NCI-H522, 21.3 µM (inactive); with OVCAR-5, > 100 µM (inactive). The GI50 in the experiment with SK-OV-3 is > 100 µM (inactive); with U-251 it was > 79.3 µM (inactive).
As for `Fc1ccc(C(OCCN2CCN(CCCCl)CC2)c2ccc(F)cc2)cc1`, the GI50 was 28.4 µM (inactive) with 786-0; 20.9 µM (inactive) in the experiment on A498; 35.5 µM (inactive) with A549; 46 µM (inactive) with ACHN; 18.6 µM (inactive) in the experiment on BT-549; 31 µM (inactive) in the experiment on CAKI-1. Besides, the GI50 in the experiment on COLO 205 is 16.3 µM (inactive); in the experiment with DU-145, 28.9 µM (inactive); with HCT-116, 19.5 µM (inactive); with HL-60, 0.391 µM (active); in the experiment on IGROV-1, 26 µM (inactive); in the experiment on K562, 15.3 µM (inactive). Also, the GI50 was 21.6 µM (inactive) in the experiment with MCF7; 17.1 µM (inactive) in the experiment on MDA-MB-435; 19.9 µM (inactive) in the experiment with MOLT-4; 21.8 µM (inactive) in the experiment with NCI-H460; 18.7 µM (inactive) with NCI-H522; 23.1 µM (inactive) with OVCAR-5. Also, the results for the GI50 in the experiment with SK-OV-3 and with U-251 were 48.6 µM (inactive) and 41 µM (inactive), respectively.
